Measurements published in ChEMBL document CHEMBL4715932, “Positional Isomers of Biphenyl Antimicrobial Peptidomimetic Amphiphiles” (ACS Med Chem Lett, 2021).
≈ marks a conversion by molar mass, not a printed value.

Legend:
Staphylococcus aureus [1] = assay: Antibacterial activity against Staphylococcus aureus ATCC 29213 assessed as inhibition of growth visually by CLSI method; format: functional
[2] = Hemolytic activity in human RBC assessed as hemolysis incubated for 1 hr by CO-ADD method; format: ADME, cell-based, Erythrocyte; conditions: red blood cells (erythrocytes)
Escherichia coli [3] = assay: Antibacterial activity against Escherichia coli ATCC 10418 assessed as inhibition of growth visually by CLSI method; format: functional
Clostridioides difficile [4] = assay: Antibacterial activity against Clostridioides difficile ATCC 700057 assessed as inhibition of growth visually preincubated for 2 to 4 hrs measured after 48 hrs by CLSI method; format: functional; conditions: time hrs <=52
Enterococcus faecalis [5] = assay: Antibacterial activity against vancomycin-resistant Enterococcus faecalis ATCC 51299 assessed as inhibition of growth visually by CLSI method; format: functional
Staphylococcus aureus [6] = assay: Antimicrobial activity against methicillin resistant Staphylococcus aureus ATCC 43300 assessed as growth inhibition incubated for 18 hrs; format: functional
Staphylococcus aureus [7] = assay: Antibacterial activity against vancomycin intermediate susceptibility Staphylococcus aureus Mu50 assessed as inhibition of growth visually by CLSI method; format: functional
Enterococcus faecalis [8] = assay: Antibacterial activity against Enterococcus faecalis ATCC 29212 assessed as inhibition of growth visually by CLSI method; format: functional
Clostridioides difficile [9] = assay: Antibacterial activity against Clostridioides difficile NSW 132 (RT027) assessed as inhibition of growth visually preincubated for 2 to 4 hrs measured after 48 hrs by CLSI method; format: functional; conditions: time hrs <=52
Cryptococcus neoformans = assay: Antifungal activity against Cryptococcus neoformans H99 ATCC 208821 assessed as growth inhibition incubated for 36 hrs; format: functional; conditions: var. grubii H99 ATCC 208821
Candida albicans = assay: Antifungal activity against Candida albicans ATCC 90028 assessed as growth inhibition incubated for 36 hrs; format: functional; conditions: 28A ATCC 90028
[10] = Cytotoxicity against human HEK-293 cells incubated for 23 hrs by CO-ADD method; format: cell-based, HEK293
[11] = Hemolytic activity in sheep RBC assessed as hemolysis at 50 microg/ml incubated for 2 hrs; format: ADME, cell-based, Ovis aries, Erythrocyte; conditions: red blood cells (erythrocytes), at 50 µg/mL, read-out: Activity
[12] = Hemolytic activity in human RBC assessed as maximal hemolysis at <= 32 ug/ml incubated for 1 hr by CO-ADD method; format: cell-based, Erythrocyte; conditions: red blood cells (erythrocytes), dose <=32 µg/ml, read-out: Activity
Pseudomonas aeruginosa = assay: Antimicrobial activity against Pseudomonas aeruginosa ATCC 27853 assessed as growth inhibition incubated for 18 hrs; format: functional
Staphylococcus aureus [13] = assay: Antibacterial activity against methicillin-resistant Staphylococcus aureus NCTC 10442 assessed as inhibition of growth visually by CLSI method; format: functional
Escherichia coli [14] = assay: Antimicrobial activity against Escherichia coli ATCC 25922 assessed as growth inhibition incubated for 18 hrs; format: functional
Streptococcus pneumoniae = assay: Antibacterial activity against Streptococcus pneumoniae ATCC 49619 assessed as inhibition of growth visually by CLSI method; format: functional
Acinetobacter baumannii = assay: Antimicrobial activity against Acinetobacter baumannii ATCC 19606 assessed as growth inhibition incubated for 18 hrs; format: functional
[15] = Hemolytic activity in sheep RBC assessed as hemolysis at 5 microg/ml incubated for 2 hrs by CO-ADD method; format: ADME, cell-based, Ovis aries, Erythrocyte; conditions: red blood cells (erythrocytes), at 5 µg/mL, read-out: Activity
[16] = Cytotoxicity against human HEK-293 cells assessed as maximal inhibition at <= 32 ug/ml incubated for 23 hrs by CO-ADD method; format: cell-based, HEK293; conditions: dose <=32 µg/ml, read-out: Imax
Klebsiella pneumoniae = assay: Antimicrobial activity against multidrug-resistant Klebsiella pneumoniae ATCC 700603 assessed as growth inhibition incubated for 18 hrs; format: functional

Molecule | MIC (Staphylococcus aureus [1]) [µg/mL] | HC50 at 1 h [2] [µg/mL] | MIC (Escherichia coli [3]) [µg/mL] | MIC (Clostridioides difficile [4]) [µg/mL] | MIC (Enterococcus faecalis [5]) [µg/mL] | MIC80 (Staphylococcus aureus [6]) [µg/mL] | MIC (Staphylococcus aureus [7]) [µg/mL] | MIC (Enterococcus faecalis [8]) [µg/mL] | MIC (Clostridioides difficile [9]) [µg/mL] | MIC80 (Cryptococcus neoformans) [µg/mL] | MIC80 (Candida albicans) [µg/mL] | CC50 at 23 h [10] [µg/mL] | hemolysis at 2 h, 50 microg/ml [11] [%] | hemolysis at 1 h [12] [%] | MIC80 (Pseudomonas aeruginosa) [µg/mL] | MIC (Staphylococcus aureus [13]) [µg/mL] | MIC80 (Escherichia coli [14]) [µg/mL] | MIC (Streptococcus pneumoniae) [µg/mL] | MIC80 (Acinetobacter baumannii) [µg/mL] | hemolysis at 2 h, 5 microg/ml [15] [%] | other results
CC(C)(C)c1ccc(CC(N)C(=O)NC(CCCNC(=N)N)C(=O)Nc2cc(NC(=O)C(CCCNC(=N)N)NC(=O)C(N)Cc3ccc(C(C)(C)C)cc3)cc(C(N)=O)c2)cc1 (centres undefined) | 3.9 (≈ 4.48 µM) | > 100 | – | – | – | – | – | – | – | – | – | – | – | – | – | – | – | – | – | – | –
CN[C@H](CC(C)C)C(=O)N[C@H]1C(=O)N[C@@H](CC(N)=O)C(=O)N[C@H]2C(=O)N[C@H]3C(=O)N[C@H](C(=O)N[C@H](C(=O)O)c4cc(O)cc(O)c4-c4cc3ccc4O)[C@H](O)c3ccc(c(Cl)c3)Oc3cc2cc(c3O[C@@H]2O[C@H](CO)[C@@H](O)[C@H](O)[C@H]2O[C@H]2C[C@](C)(N)[C@H](O)[C@H](C)O2)Oc2ccc(cc2Cl)[C@H]1O [VANCOMYCIN] | – | – | > 8 | 1 (≈ 0.69 µM) | > 8 | 1 (≈ 0.69 µM) | 8 (≈ 5.52 µM) | 2 (≈ 1.38 µM) | 0.5 (≈ 0.345 µM) | – | – | – | – | – | – | – | – | – | – | – | –
OC(Cn1cncn1)(Cn1cncn1)c1ccc(F)cc1F [FLUCONAZOLE] | – | – | – | – | – | – | – | – | – | 8 (≈ 26.1 µM) | 0.125 (≈ 0.408 µM) | – | – | – | – | – | – | – | – | – | –
CC(C)CCOc1ccc(-c2ccc(OCc3cn(C[C@@H](CCCCN)NC(=O)[C@@H](CCCNC(=N)N)n4cc(CC5CCCCC5)nn4)nn3)cc2)cc1.Cl.Cl | 4 | 9.8 | 32 | 16 | 16 | ≤ 0.25 | 4 | 8 | 8 | > 32 | 1 | > 32 | 57.2 | 94 | 8 | 4 | 8 | 2 | 32 | 1.4 | Emax at 23 h [16]: 25%; MIC80 (Klebsiella pneumoniae): 32 µg/mL
CC(C)CCOc1ccc(-c2ccccc2OCc2cn(C[C@@H](CCCCN)NC(=O)[C@@H](CCCNC(=N)N)n3cc(CC4CCCCC4)nn3)nn2)cc1.Cl.Cl | 4 | > 32 | 4 | 16 | 8 | ≤ 0.25 | 4 | 4 | 16 | > 32 | > 32 | > 32 | 63 | 41 | 8 | 2 | 4 | 1 | 4 | 2.7 | Emax at 23 h [16]: 13%; MIC80 (Klebsiella pneumoniae): 32 µg/mL
CC(C)CCOc1ccccc1-c1ccccc1OCc1cn(C[C@@H](CCCCN)NC(=O)[C@@H](CCCNC(=N)N)n2cc(CC3CCCCC3)nn2)nn1.Cl.Cl | 2 | > 32 | 4 | 16 | 8 | ≤ 0.25 | 4 | 4 | 8 | > 32 | 32 | > 32 | 66.6 | 56 | 16 | 2 | 8 | 1 | 16 | 2.1 | Emax at 23 h [16]: 14%; MIC80 (Klebsiella pneumoniae): 32 µg/mL
CC/C(=C(\c1ccccc1)c1ccc(OCCN(C)C)cc1)c1ccccc1 [TAMOXIFEN] | – | – | – | – | – | – | – | – | – | – | – | 9 (≈ 24.2 µM) | – | – | – | – | – | – | – | – | –
CCCCCCCCCCCCCCCC1OC2C3CC(C2O1)C(C(=O)NCCNC(=N)N)C3C(=O)NCCNC(=N)N.Cl.Cl (centres undefined) | – | – | – | – | – | – | – | – | – | – | – | > 50 | – | – | – | – | – | – | – | – | MIC (Staphylococcus aureus [6]): 1 µg/mL
CC(C)CCOc1ccccc1-c1cccc(OCc2cn(C[C@@H](CCCCN)NC(=O)[C@@H](CCCNC(=N)N)n3cc(CC4CCCCC4)nn3)nn2)c1.Cl.Cl | 4 | > 32 | 4 | 16 | 8 | ≤ 0.25 | 2 | 4 | 8 | > 32 | 16 | > 32 | 38.2 | 81 | 2 | 4 | 2 | 2 | 16 | 1.4 | Emax at 23 h [16]: 36%; MIC80 (Klebsiella pneumoniae): > 32 µg/mL
C[C@@H]1[C@H](O)[C@@H](C)/C=C/C=C/C=C/C=C/C=C/C=C/C=C/[C@H](O[C@@H]2O[C@H](C)[C@@H](O)[C@H](N)[C@@H]2O)C[C@@H]2O[C@](O)(C[C@@H](O)C[C@@H](O)[C@H](O)CC[C@@H](O)C[C@@H](O)CC(=O)O[C@H]1C)C[C@H](O)[C@H]2C(=O)O [AMPHOTERICIN B] | – | – | – | – | – | – | – | – | – | 1.56 (≈ 1.69 µM) | 1.56 (≈ 1.69 µM) | – | – | – | – | – | – | – | – | – | –
COLISTIN | – | – | 1 | – | – | – | – | – | – | – | – | – | – | – | – | – | – | – | – | – | MIC=>80 (Pseudomonas aeruginosa): 0.25 µg/mL; MIC=>80 (Escherichia coli [14]): 0.125 µg/mL; MIC=>80 (Acinetobacter baumannii): 0.25 µg/mL; MIC=>80 (Klebsiella pneumoniae): 0.25 µg/mL
CCCCCCCCCCCC(=O)N(CCCCCCNC(=O)[C@@H](N)CCCCN)CCCCCCNC(=O)[C@@H](N)CCCCN | – | 860 | 3.1 (≈ 4.74 µM) | – | – | – | – | – | – | – | – | – | – | – | – | – | – | – | – | – | MIC (Staphylococcus aureus [6]): 3.1 µg/mL (≈ 4.74 µM)
CC(C)CCOc1cccc(-c2ccc(OCc3cn(C[C@@H](CCCCN)NC(=O)[C@@H](CCCNC(=N)N)n4cc(CC5CCCCC5)nn4)nn3)cc2)c1.Cl.Cl | 4 | > 32 | 16 | 32 | 16 | ≤ 0.25 | 4 | 4 | 16 | > 32 | 16 | > 32 | 40.8 | 88 | 32 | 4 | 32 | 4 | 32 | 2.1 | Emax at 23 h [16]: 43%; MIC80 (Klebsiella pneumoniae): > 32 µg/mL
